From US5405843A, “Quinoline derivatives” (Mitsui Toatsu Chemicals, Incorporated, priority 1988, dated 1995)

Key:
[1] = test system: Vincristine-resistant strain P388/VCR cells of mouse leukemia P388 cells; test: Potentiating effect on vincristine in mice having vincristine-resistant mouse leukemia (survival); format: in vivo, mouse (female CDFI mice); settings: peritoneal, once a day for 5 days; for T/C (rate of life prolongation): control = 100
[2] = test system: Adriamycin resistant strain 2780 AD cells of human ovarian cancer A2780 cells; test: Potentiating effect on incorporation of 3H-vincristine into adriamycin-resistant cancer cells; format: cell-based; settings: Homo sapiens, 2780AD, 2 h, 20 nM 3H-vincristine, control = 100, read-out: 3H-vincristine accumulation; for activity at 1 µg/mL: compound 1 μg/ml; for activity at 10 µg/mL: compound 10 μg/ml
Method: Potentiating Effect of the Compounds on Incorporation of Anticancer Drugs into Drug-resistant Cancer Cells
Adriamycin resistant strain 2780 AD cells of human ovarian cancer A2780 cells (A. M. Rogan et al., Science 224, 994-996, 1984) were suspended at a concentration of 1×10^6 /ml in RPMI-1640 medium supplemented with 5% fetal calf serum, and 1 ml of the cancer cell suspension was dispensed into each well of a multi-well culture plate (24 wells, […] in diameter) and then incubated at 37° C. in an atmosphere of 5% CO2. After 24 hours incubation, the medium in each well was replaced by 0.5 ml of RPMI-1640 medium supplemented containing 20 nM ^3 H-vincristine (1×10^4 dpm/pmol), 5% fetal calf serum and 10 mM Hepes buffer. Five microliters of a solution of the compound to be tested, which had been dissolved in DMSO and diluted with […] (at a concentration of 1.0 microgram/ml or 10.0 micrograms/ml), was added to each well and the incubation was continued at 37° C. in 5% CO2 for 2 hours. The resultant cells were washed in cold saline-phosphate buffer. In each well was added 0.5 ml of 0.2N NaOH, and the resulting cell suspension in each well was independently transferred into a vial and then heated in a water bath at 56° C. for 30-60 minutes to dissolve the cells. After adding 4 ml of acid aquazole 2, the amount of ^3 H-vincristine incorporated into the cells was determined by a fluid scintillation counter.

[3] = compound 10 mg/kg + vincristine 100 ug/kg
[4] = compound 30 mg/kg + vincristine 100 ug/kg

SMILES | Average surviving period [1, 3] | T/C (rate of life prolongation) [1, 3] | Average surviving period [1, 4] | T/C (rate of life prolongation) [1, 4] | activity at 1 µg/mL [2] | activity at 10 µg/mL [2]
OC(COc1cccc2cnccc12)CN1CCN(C2c3ccccc3CCc3ccccc32)CC1 (stereo not shown) [Example 44, 5-[3-(4-(Dibenzosuberane-5-yl)piperazine-1-yl)-2-hydroxypropoxy]isoquinoline] | 12.5 ± 0.0 days | 112% | 13.8 ± 1.0 days | 123% | 636% | 934%
c1ccc(C(c2ccccc2)N2CCN(CCOc3cccc4ncccc34)CC2)cc1 [Example 34, 5-[2-(4-Diphenylmethylpiperazine-1-yl)ethoxy]quinoline] | – | – | 10.8 ± 0.8 days | 98% | 785% | –
OC(COc1cccc2ncccc12)CN1CCCN(C(c2ccccc2)c2ccccc2)CC1 (stereo not shown) [Example 4, 5-[3-(4-Diphenylmethylhomopiperazine-1-yl)-2-hydroxypropoxy]quinoline] | – | – | 11.8 ± 0.4 days | 107% | 438% | 770%
COc1ccc(C(c2cccc(OC)c2OC)N2CCN(CC(O)COc3cccc4ncccc34)CC2)cc1OC (stereo not shown) [Example 11, 5-[3-(4-(2,3,3',4'-Tetramethoxydiphenylmethyl)piperazine-1-yl)-2-hydroxypropoxy]quinoline] | – | – | 12.1 ± 0.5 days | 115% | 735% | –
c1ccc(C(=C2CCN(CCCOc3cccc4ncccc34)CC2)c2ccccc2)cc1 [Example 84, 5-[3-(4-(Diphenylmethylene)piperidine-1-yl)propoxy]quinoline] | – | – | 13.0 ± 0.7 days | 121% | 159% | 878%
COc1ccc2c(OCC(O)CN3CCN(C4c5ccccc5CCc5ccccc54)CC3)cccc2n1 (stereo not shown) [Example 9, 5-[3-(4-(Dibenzosuberane-5-yl)piperazine-1-yl)-2-hydroxypropoxy]-2-methoxyquinoline] | – | – | 14.2 ± 0.6 days | 134% | 721% | 947%
OC(COc1cccc2nc(Cl)ccc12)CN1CCN(C2c3ccccc3CCc3ccccc32)CC1 (stereo not shown) [Example 18, 5-[3-(4-(5-Dibenzosuberanyl)piperazine-1-yl)-2-hydroxypropoxy]-2-chloroquinoline] | – | – | 13.8 ± 0.4 days | 131% | 743% | 761%
COc1ccc2c(OCC(O)CN3CCN(C(c4ccccc4)c4ccccc4)CC3)cccc2n1 (stereo not shown) [Example 42, 5-[3-(4-Diphenylmethylpiperazine-1-yl)-2-hydroxypropoxy]-2-methoxyquinoline] | – | – | 13.9 ± 2.4 days | 126% | 624% | –
OC(COc1cccc2ncccc12)CN1CCC(=C(c2ccccc2)c2ccccc2)CC1 (stereo not shown) [Example 13, 5-[3-(4-(Diphenylmethylene)piperidine-1-yl)-2-hydroxypropoxy]quinoline] | – | – | 15.3 ± 0.5 days | 139% | 517% | 805%
OC(COc1cccc2ncccc12)CN1CCC(C(O)(c2ccccc2)c2ccccc2)CC1 (stereo not shown) [Example 7, 5-[3-(4-(Diphenyl-hydroxymethyl)piperidine-1-yl)-2-hydroxypropoxy]quinoline] | – | – | 12.9 ± 0.5 days | 123% | 972% | –
CN(CCCN1c2ccccc2CCc2ccccc21)CC(O)COc1cccc2ncccc12 (stereo not shown) [Example 82, 5-[3-(N-Methyl-N-(3-(5H-10,11-dihydrodibenzo(b,f)-azepin-5-yl)propyl)amino]-2-hydroxypropoxy]quinoline] | – | – | 11.2 ± 1.4 days | 105% | 667% | –
CN(CCN(C)C(c1ccccc1)c1ccccc1)CC(O)COc1cccc2ncccc12 (stereo not shown) [Example 3, 5-(3-[N-(2-(N-Diphenylmethyl-N-methylamino)ethyl)-N-methylamino]-2-hydroxypropoxy)quinoline] | – | – | 11.0 ± 0.6 days | 100% | 731% | 774%
Cc1cc(C)c2c(OCC(O)CN3CCN(C(=O)C(c4ccccc4)c4ccccc4)CC3)cccc2n1 (stereo not drawn) [Example 53, 2,4-Dimethyl-5-[3-((α,α-diphenylacetyl)piperazine-1-yl)-2-hydroxypropoxy]quinoline] | – | – | 11.8 ± 0.8 days | 111% | 658% | 794%
COc1ccc2c(OCC(O)CN3CCN(C(=O)C(c4ccccc4)c4ccccc4)CC3)cccc2n1 (stereo not shown) [Example 8, 5-[3-(4-(2,2-Diphenylacetyl)piperazine-1-yl) -2-hydroxypropoxy]-2-methoxyquinoline] | – | – | 12.2 ± 0.6 days | 115% | 394% | 863%
CCN(CCN(CC)C(c1ccccc1)c1ccccc1)CC(O)COc1cccc2ncccc12 (stereo not shown) [Example 10, 5-(3-[N-(2-(N-Diphenylmethyl-N-ethylamino)ethyl)-N-ethylamino]-2-hydroxypropoxy)quinoline] | – | – | 12.3 ± 1.4 days | 112% | 642% | 932%
OC(COc1cccc2ncccc12)CN1CCN(C(c2ccc(F)cc2)c2ccc(F)cc2)CC1 (stereo not shown) [Example 57, 5-(3-[4-(Bis(4-fluorophenyl)methyl)piperazine-1-yl]-2-hydroxypropoxy)quinoline] | – | – | 13.1 ± 0.4 days | 124% | 572% | 732%
OC(COc1cccc2ncccc12)CN1CCN(CC(c2ccccc2)c2ccccc2)CC1 (stereo not shown) [Example 17, 5-[3-(4-(2,2-Diphenylethyl)piperazine-1-yl)-2-hydroxypropoxy]quinoline] | – | – | 11.8 ± 1.1 days | 115% | 730% | –
OC(COc1cccc2ncccc12)CN1CCN(C2c3ccccc3C=Cc3ccccc32)CC1 (stereo not shown) [Example 20, 5-[3-(4-(5-Dibenzosuberenyl)piperazine-1-yl)-2-hydroxypropoxy]quinoline] | – | – | 13.7 ± 1.0 days | 133% | 794% | –
OC(COc1cccc2nc(Cl)ccc12)CN1CCN(C(c2ccccc2)c2ccccc2)CC1 (stereo not shown) [Example 41, 2-Chloro-5-[3-(4-diphenylmethylpiperazine-1-yl)-2-hydroxypropoxy]quinoline] | – | – | 13.2 ± 1.8 days | 120% | 584% | –
COc1ccc(C(c2ccc(OC)cc2)N2CCN(CC(O)COc3cccc4ncccc34)CC2)cc1 (stereo not shown) [Example 59, 5-(3-[4-(Bis-(4-methoxyphenyl)methyl)piperazine-1-yl] -2-hydroxypropoxy)quinoline] | – | – | 13.2 ± 1.2 days | 125% | 561% | 685%
OC(COc1cccc2ncccc12)CN1CCN(C(c2ccccc2)c2ccccn2)CC1 (stereo not shown) [Example 15, 5-[2-Hydroxy-3-(4-(phenyl-2-pyridylmethyl)piperazine-1-yl)propoxy]quinoline] | – | – | 12.3 ± 0.4 days | 117% | 840% | –
Cc1cc(C)c2c(OCC(O)CN3CCN(C4c5ccccc5CCc5ccccc54)CC3)cccc2n1 (stereo not shown) [Example 22, 5-[3-(4-(Dibenzosuberane-5-yl)piperazine-1-yl)-2-hydroxypropoxy]-2,4-dimethylquinoline] | – | – | 13.9 ± 0.4 days | 132% | 723% | 743%
OC(COc1cccc2ncccc12)CN1CCC(C2(O)c3ccccc3CCc3ccccc32)CC1 (stereo not shown) [Example 78, 5-[2-Hyroxy-3-(4-(5-hydroxydibenzosuberane-5-yl)piperidine-1-yl)propoxy]quinoline] | – | – | 12.8 ± 0.8 days | 120% | 943% | –
Cc1cc(C)c2c(OCC(O)CN3CCN(C4c5ccccc5COc5ccccc54)CC3)cccc2n1 (stereo not shown) [Example 21, 2,4-Dimethyl-5-[3-(4-(6,11-dihydrodibenzo[b,e]oxepine-11-yl)piperazine-1-yl)-2-hydroxypropoxy]quinoline] | – | – | 12.5 ± 0.6 days | 121% | 727% | 745%
